In publication PMC5485019 (2017):

Tests used:
[1] = system: FMycT (F-Myc-T) (DNA, G4) TTGAGGGTGGGTAGGGTGGGTAA; test: FRET melting; conditions: 1 mM KCl, 99 mM LiCl, 10 mM Li cacodylate, 200 nM DNA
[2] = system: F10T (DNA, hairpin, hexaethylene glycol (HEG) linker between nucleotides 10 and 11) TATAGCTATATATAGCTATA; test: FRET melting; conditions: 10 mM KCl, 90 mM LiCl, 10 mM Li cacodylate, 200 nM DNA
[3] = system: F21T (DNA, G4) GGGTTAGGGTTAGGGTTAGGG; test: FRET melting; conditions: 10 mM Li cacodylate, 1 μM ligand, 200 nM DNA
[4] = system: F21T (DNA, G4) GGGTTAGGGTTAGGGTTAGGG; test: FRET melting; conditions: 10 mM Li cacodylate, 200 nM DNA
[5] = system: FMycT (F-Myc-T) (DNA, G4) TTGAGGGTGGGTAGGGTGGGTAA; test: FRET melting; conditions: 1 mM KCl, 99 mM LiCl; 10 mM Li cacodylate; 1 μM ligand, 200 nM DNA
[6] = system: F10T (DNA, hairpin, hexaethylene glycol (HEG, (-CH2CH2O-)6) linker between nucleotides 10 and 11) TATAGCTATATATAGCTATA; test: FRET melting; conditions: 10 mM KCl, 90 mM LiCl; 10 mM Li cacodylate; 1 μM ligand, 200 nM DNA
[7] = system: telo23 (DNA, G4) TAGGGTTAGGGTTAGGGTTAGGG; test: ITC; conditions: K+ (100 mM potassium phosphate); pH 7.4, 25 °C (298 K); 15 µM DNA; bracket = 68.3 % confidence interval
[8] = system: telo23 (DNA, G4) TAGGGTTAGGGTTAGGGTTAGGG; test: CD titration; conditions: Na+ (100 mM sodium phosphate); pH 7.4 (main text 7.2); 4.22 µM DNA; antiparallel shifts towards hybrid
[9] = 1 µM ligand, no stabilization up to 10 µM
[10] = 100 mM NaCl, no stabilization up to 10 μM
[11] = 10 mM KCl, 90 mM LiCl, 1 μM ligand
[12] = 100 mM NaCl, 1 μM ligand, no stabilization up to 10 μM

Compound	ΔT max ([3]; 10 mM KCl, 90 mM LiCl) [°C]	ΔT max [3, 10] [°C]	ΔT max [5] [°C]	ΔT max [6] [°C]	K a [7]	also measured
CN(C)CCCN1C(=O)c2ccc3c4c(ccc(c24)C1=O)C(=O)N(CCCN(C)C)C3=O	2.3±0.5					ΔT max ([1]; 1 μM ligand): 3.9±0.2 °C; ΔT max ([2]; 1 μM ligand): 1.1±0.1 °C; ΔT max ([3]; 100 mM NaCl): −1.5±0.2 °C
O=C1c2ccc3c4c(ccc(c24)C(=O)N1CCO[C@@H]1O[C@H](CO)[C@@H](O)[C@H](O)[C@H]1O)C(=O)N(CCO[C@@H]1O[C@H](CO)[C@@H](O)[C@H](O)[C@H]1O)C3=O		−0.1±0.5				ΔT max [1, 9]: −0.3±0.4 °C; ΔT max ([4]; 10 mM KCl, 90 mM LiCl, 1 µM ligand, no stabilization up to 10 µM): 0.4±0.1 °C; ΔT max [2, 9]: 0.5±0.2 °C
Cn1cc[n+](C[C@H]2O[C@@H](OCCN3C(=O)c4ccc5c6c(ccc(c46)C3=O)C(=O)N(CCO[C@@H]3O[C@H](C[n+]4ccn(C)c4)[C@@H](O)[C@H](O)[C@H]3O)C5=O)[C@H](O)[C@@H](O)[C@@H]2O)c1	2.9±0.3	−1.5±0.4	0.9±0.7	0.1±0.2		
Cn1cc[n+](CCN2C(=O)c3ccc4c5c(ccc(c35)C2=O)C(=O)N(CC[n+]2ccn(C)c2)C4=O)c1	1.3±0.4	−0.6±0.5	1±0.4	0.4±0.2		
Cn1cc[n+](C[C@H]2O[C@H](OCCN3C(=O)c4ccc5c6c(ccc(c46)C3=O)C(=O)N(CCO[C@H]3O[C@H](C[n+]4ccn(C)c4)[C@@H](O)[C@H](O)[C@@H]3O)C5=O)[C@@H](O)[C@@H](O)[C@@H]2O)c1					1.30 (1.02,1.64) × 10^6 M^-1	ΔT max ([1]; 1 µM ligand, 10.5 °C at 10 µM): −0.3±0.7 °C; binding [8]: yes; ΔT max [4, 11]: 10.1±0.3 °C; ΔT max [4, 12]: −1.4±0.3 °C; ΔT max ([2]; 1 µM ligand, 3.2 °C at 10 µM): −0.1±0.1 °C
CN1CCN(CCCN2C(=O)c3ccc4c5c(ccc(c35)C2=O)C(=O)N(CCCN2CCN(C)CC2)C4=O)CC1			0.5±0.3	0.3±0.2	1.03 (0.865,1.23) × 10^6 M^-1	binding [8]: yes; ΔT max [4, 11]: 9.8±0.6 °C; ΔT max [4, 12]: −2.3±0.3 °C
Cn1cc[n+](CCCN2C(=O)c3ccc4c5c(ccc(c35)C2=O)C(=O)N(CCC[n+]2ccn(C)c2)C4=O)c1	3.7±0.3		1.8±0.8	0.1±0.1	2.16 (1.85,2.52) × 10^6 M^-1	ΔT max ([3]; 100 mM NaCl): −0.5±0.4 °C
C[n+]1ccc(-c2c3nc(c(-c4cc[n+](C)cc4)c4ccc([nH]4)c(-c4cc[n+](C)cc4)c4nc(c(-c5cc[n+](C)cc5)c5ccc2[nH]5)C=C4)C=C3)cc1						∆Tmax [4, 11]: 27.4 ± 0.4 °C
